Assay [1] has as its system PBG1 iPSCs. Briefly: Phase I directed differentiation of PBG1 iPSCs to hemogenic endothelium, immunofluorescence staining of CD31 and CD34. Conditions: Laminin 521 matrix, versus control without WNT agonist. Format: cell-based, human.
Source text: FIG. 26A, FIG. 26B, and FIG. 26C depict immunofluorescence microscopy images of Day 6 Phase I cultures on Laminin 521. FIG. 26A depicts a control culture without WNT agonist.
The subject of assay [2] is PBG1 iPSCs. The conditions noted are these: 0.6 uM in the first 48 hours of Phase I; Day 6+4; Laminin 521 matrix; versus control.
The next assay has as its system PBG-1 iPSCs. Briefly: Directed differentiation of PBG-1 to preMKs and MKs on a recombinant Laminin-521 matrix compared with Collagen IV, flow cytometry. The assay is classed as cell-based, human. The conditions noted are these: 3 days of Phase III (Day 6+6+3); preMKs from Laminin-521 or Collagen IV cultures. The procedure: FIG. 23A, FIG. 23B, and FIG. 23C depict use of recombinant Laminin 521 to support production and release of megakaryocytic progenitors in Phase II of directed differentiation of PBG1 cells. FIG. 23A depicts representative flow cytometric data from Phase II of PBG1 differentiation cultures utilizing a supportive matrix of 4.2 ug/cm^2 human Collagen IV. FIG. 23B depicts representative flow cytometric data from Phase II of PBG1 differentiation cultures utilizing a supportive matrix of 0.13 ug/cm^2 recombinant human Laminin 521. FIG. 23C depicts the cumulative yields of released preMKs (i.e. viable CD41+CD43+CD14−) per 6-well equivalent (i.e. 2 ml of media, 9.5 cm^2 surface area) between day 6+4 and 6+8 of Phase II directed differentiation cultures initiated with PBG1 iPSCs, utilizing a supportive matrix of 4.2 ug/cm^2 human Collagen IV or 0.13 ug/cm^2 recombinant human Laminin 521.
FIG. 25A and FIG. 25B show flow cytometric subset breakdowns of Phase III (Day 6+6+3) cultures. […] Non-MKs are CD61−, Immature MKs are CD61+CD42a−CD42b−, Apoptotic MKs are CD61+CD42a+CD42b−, and Mature MKs are CD61+CD42a+CD42b+.
Collagen IV is purified from human placental material and is only available as a Research Use Only reagent. […]
(In flow cytometry, cells or beads pass a laser one at a time.)

On to `Cc1c[nH]c(-c2cnc(NCCNc3ccc(C#N)cn3)nc2-c2ccc(Cl)cc2Cl)n1` [CHIR99021], for which the “Phase I differentiation efficiency at day 6 (CD31 and CD34 staining)” value in the assay on PBG1 iPSCs [1] (6 uM for the first 48 hours of differentiation only) was “dramatic increase”.

CHIR98014: the “Phase I differentiation efficiency at day 6 (CD31 and CD34 staining)” value in the assay with PBG1 iPSCs [1] (0.6 uM for the first 48 hours of differentiation only) is “dramatic increase”. For the same molecule, the “Phase II output of preMKs (visual estimation of the number of CD41+ cells)” value in the assay with PBG1 iPSCs [2] was “higher output during Phase II”.

For the molecule “Laminin-521: recombinant human laminin 521, supportive matrix replacing Collagen IV for directed differentiation”, the “Proportion of CD61+ cells co-expressing CD42a and CD42b in Phase III versus Collagen IV” value in the assay with PBG-1 iPSCs was “found to be similar”.

The values above are taken from patent publication US12060576B2, “Compositions and methods for producing megakaryocytes” (Stellular Bio, Inc., priority 2018, dated 2024).
